Reference: paper PMC10846240, “Pharmacokinetic/pharmacodynamic integration of amphenmulin: a novel pleuromutilin derivative against Mycoplasma gallisepticum” (Microbiology Spectrum, 2023)
Converted amounts (≈) assume the structure as drawn. “And” between values parts separate entries of the source, which are not always exact repeats. Equal entries are not always repeated. Where two headings read alike, the source gives them in different places.

How the values were obtained:
M. gallisepticum = assay: PK/PD integration, inhibitory Sigmoid Emax model; format: cell-based, Mycoplasma gallisepticum; details: for Emax: inhibitory Emax model
Description: Phoenix software was used to analyze the in vitro concentration–time data of amphenmulin and calculate the AUC and peak concentration (Cmax), which were combined with MIC to obtain PK/PD parameters. Concurrently, the anti-mycoplasma effect was derived from the dynamic time–kill curve, which was analyzed with the PK/PD index using an inhibitory Sigmoid Emax model as follows:
E=E0−(E0−Emax)×CeN/EC50N+CeN
E, anti-mycoplasma effect, the change in M. gallisepticum counts during 24 h of cultivation; E0, M. gallisepticum change in control (without drug); Emax, maximal effect produced by amphenmulin against M. gallisepticum during 24 h; Ce, PK/PD parameters (AUC/MIC or Cmax/MIC); EC50, the Ce value needed to produce 50% of maximal effect; N, Hill coefficient, the slope of the fitted curve.

[1] = In vivo pharmacokinetics of amphenmulin in chickens (IV, IM, PO); details: for Cmax: mean ± SD, n = 10; for bioavailability: read-out: F (absolute bioavailability)
Description: The M. gallisepticum standard strain S6 was obtained from the National Center for Veterinary Culture Collection (Beijing, China). Amphenmulin (98%) was synthesized by our laboratory according to the published methods ([10]). Acetonitrile and all other liquid chemicals used were purchased from Macklin Biochemical Technology Co., Ltd (Shanghai, China). M. gallisepticum in this study was cultured under standard conditions of 37°C with the following nutrients: swine serum, M. gallisepticum artificial medium base from Qingdao Hope Biological Technology Co., Ltd (Qingdao, China), nicotinamide adenine dinucleotide (NADH) and cysteine from Aladdin Biochemical Technology Co., Ltd (Shanghai, China). Thirty healthy adult yellow-feathered broilers weighing 1.58 to 2.04 kg were used in this study, caged, fed without antibiotics and anticoccidial drugs, and watered and fed ad libitum. All animal experimental procedures were approved by the Animal Ethics Committee of South China Agricultural University (Approval number: 2023a015).
In this study, the dose design for the administration of amphenmulin was mainly based on the previous study report on tiamulin ([15]). The chickens were randomly divided into three groups (10 per group) and given a single dose of 20 mg/kg of body weight (bw.) of amphenmulin via intravenous, intramuscular injection, and oral gavage, respectively. Blood samples were collected from the brachial wing vein of each chicken at 0, 5, 10, 15, 30, 45 min, 1, 2, 3, 4, 6, 8, 10, 12, 24 h after intravenous injection, and at 0, 3, 6, 9, 12, 20, […], 45 min, 1, 2, 4, 8, 12, 24 h after oral and intramuscular administrations. The blood samples were centrifuged at 3,500 rpm for 10 min. The plasma was collected and stored at −20°C until analysis.
After the plasma samples were restored to room temperature, 200 µL was taken and vortexed with 800 µL of acetonitrile, centrifuged at 12,000 rpm for 10 min. The supernatant was filtered through a 0.22-µm filter and analyzed using a high-performance liquid chromatography-tandem mass spectrometry (HPLC-MS/MS) system (Agilent 1200 HPLC and Applied Biosystem API4000 mass spectrometer, ABI Sciex, USA). Amphenmulin was separated on a C18 column (150 mm × 2 mm, 5 µm) at a flow rate of 0.5 mL/min, with a mobile phase of 0.1% aqueous formic acid and acetonitrile (40:60, vol/vol). The electrospray ionization (ESI) source of the mass spectrometer was operated in positive ion mode for multi-reaction monitoring, with the following ion source parameters: ion spray voltage 4,500 V, collision gas 5 psi, ion source gas1 50 psi, ion source gas2 55 psi, curtain gas 20 psi, source temperature 400°C.
Additionally, the plasma concentration–time data of amphenmulin in each individual were further analyzed using the non-compartmental method in Phoenix 8.1 (Certara, USA) to calculate pharmacokinetic parameters, in which the area under the curve (AUC) was calculated using the log-linear trapezoidal method, and the results were reported as mean ± standard deviation (SD).

[2] = test system: M. gallisepticum S6 strain; assay: Susceptibility assay, agar dilution (MIC, MIC99, MPC); format: cell-based, Mycoplasma gallisepticum; design: MPC: unit not given here
Description: The minimum inhibitory concentration (MIC) of amphenmulin against M. gallisepticum S6 strain was determined with reference to the protocols previously reported ([16], [17]). The broth microdilution method was performed using 96-well plates to achieve a final titer of approximately 10^7 colony-forming units (CFU)/mL of M. gallisepticum in each well. The final concentrations tested of amphenmulin ranged from 0.488 × 10^−3 to 0.125 µg/mL. Concurrently, a growth control (without drug), an end-point control (blank medium), and a sterile control (sterile broth) were also implemented. […] For the agar dilution method, M. gallisepticum was inoculated and cultured on agar plates containing a twofold dilution series of amphenmulin concentrations, and the MIC was the lowest drug concentration that inhibited growth. Additionally, following the procedure of broth microdilution, the initial culture before incubation and the samples from wells where the color remained unchanged after 48 h of incubation were subjected to 10-fold serial dilutions. Each dilution sample (10 µL) was then plated on drug-free agar for colony counting.
We also determined the minimum concentration inhibiting colony formation by 99% (MIC99) of amphenmulin against the S6 strain by slightly modifying the existing methods ([18], [19]). […] By counting the colony growth of M. gallisepticum inoculated on these drug-containing agar plates and performing linear regression with drug concentration, we calculated the amphenmulin concentration that inhibits 99% growth of the S6 strain.
Furthermore, we determined the mutant prevention concentration (MPC) of amphenmulin against the S6 strain by agar dilution method ([20]). Briefly, M. gallisepticum at exponential phase was enriched to ≥10^9 CFU/mL by centrifugation and cultured as described above. The lowest drug concentration that inhibited mycoplasma growth in the agar plate was determined as the primary MPC (MPCpr), and the determination was repeated after linearly reducing the MPCpr to 0.5 MPCpr at 10% drug concentration. The final mycoplasma-free growth concentration was the MPC. All the experiments of the above pharmacodynamic studies were conducted in triplicate.

[3] = yellow-feathered broilers, plasma, 20 mg/kg bw., IM
[4] = yellow-feathered broilers, plasma, 20 mg/kg bw., IV
[5] = yellow-feathered broilers, plasma, 20 mg/kg bw., PO
[6] = Mycoplasmoides gallisepticum, S6STRAIN

For `C=C[C@]1(C)C[C@@H](OC(=O)CSc2ccccc2N)[C@]2(C)[C@H](C)CC[C@]3(CCC(=O)[C@H]32)[C@@H](C)[C@@H]1O` [amphenmulin, 22-(2-amino-phenylsulfanyl)-22-deoxypleuromutilin], the “AUC24 h/MIC target value” (M. gallisepticum; for a decrease of 1 Log10CFU/mL of M. gallisepticum) was 904.05 h, the Emax (M. gallisepticum; index AUC24 h/MIC) was −2.4214 Log10CFU/mL and the Emax (M. gallisepticum; index Cmax/MIC) was −3.3571 Log10CFU/mL. The T1/2Ke ([1]; 20 mg/kg bw., IM) was 5.50 ± 1.43 h, the T1/2Ke ([1]; 20 mg/kg bw., IV, 20 mg/kg) was 2.13 h and 2.13 ± 0.63 h and the T1/2Ke ([1]; 20 mg/kg bw., PO) was 2.60 ± 0.87 h. The “oral absorption rate constant (Ka)” value ([1]; oral, residual method) was “approximately 3.15 1/h”, the Tmax ([1]; yellow-feathered broilers, chicken, plasma, other: oral and intramuscular, 20 mg/kg bw., two extravascular routes (oral and intramuscular), read-out: time to peak levels after administration) was < 0.5 h and the AUC(0-inf) [1, 3] was 9850 ± 2720 ng·h/mL. For the same molecule, the AUC(0-t) [1, 3] was 9160 ± 2650 ng·h/mL, the MRT [1, 3] was 7.89 ± 2.75 h and the k el [1, 3] was 3.61e-05 s⁻¹. The Cmax [1, 3] was 1930 ± 480 ng/mL, the bioavailability [1, 3] was 52.1% and the Tmax ([1]; yellow-feathered broilers, plasma, 20 mg/kg bw., IM, read-out: Tmax) was 0.38 ± 0.2 h. The AUC(0-inf) [1, 4] was 18900 ± 6030 ng·h/mL, the AUC(0-t) [1, 4] was 18800 ± 6090 ng·h/mL and the MRT [1, 4] was 3.13 ± 1.05 h. The clearance [1, 4] was 19.5 mL/min/kg, the k el [1, 4] was 9.72e-05 s⁻¹ and the Vd ([1]; yellow-feathered broilers, plasma, 20 mg/kg bw., IV, read-out: Vss) was 3.64 ± 1.58 L/kg. For the same molecule, the AUC(0-inf) [1, 5] was 1110 ± 430 ng·h/mL, the AUC(0-t) [1, 5] was 1060 ± 400 ng·h/mL and the MRT [1, 5] was 2.98 ± 1.05 h. It also gave a k el [1, 5] of 8.06e-05 s⁻¹, a Cmax [1, 5] of 730 ± 360 ng/mL and a bioavailability [1, 5] of 5.88%. The Tmax ([1]; yellow-feathered broilers, plasma, 20 mg/kg bw., PO, read-out: Tmax) was 0.25 ± 0.11 h, the “MPC relative to MIC99” value [2] was “about 6.5 times” and the MIC [2, 6] was 7.8 ng/mL (≈ 0.0161 µM). The MIC99 [2, 6] was 7.7 ng/mL (≈ 0.0159 µM), the MPC ([2]; agar dilution, inoculum 10^9 CFU/mL) was 0.0500 and the “mutation selection window (MSW)” value ([2]; between MIC99 and MPC) was 0.77 × 10^−2–0.05 µg/mL.
